Measured values reported in PubChem BioAssay AID1963960 (Molecular Pharmacology Branch, DTP, NCI, 2024).

Tested on: MDA-MB-468 spheroids with HUVEC/MSC, viability
Assay: Anticancer human tumor MDA-MB-468 cell line growth inhibition [PI3K];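 note: spheroids exposed to agents for seven days before readout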;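 for viability, T/C: 100% = DMSO vehicle control viability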
Conditions: for viability, T/C: stronger effect = lower value
Description: Combinatorial screen of targeted agents with the PI3K inhibitors inavolisib, alpelisib, duvelisib, and copanlisib in multi-cell type tumor spheroids
A high-throughput screen of multi-cell type tumor spheroids was designed to identify active combinations of targeted small molecules and PI3K pathway inhibitors. Complex spheroids include a stromal component modeled by human endothelial cells (HUVEC) and fibroblasts modeled by human mesenchymal stem cells (MSCs). The concentration ranges selected for each drug and investigational agent were based upon clinically achievable concentrations if the clinical Cmax of the agent was known.
Compounds. The drugs and investigational agents: inavolisib (NSC800729), alpelisib (NSC765974), duvelisib (NSC772469), copanlisib (NSC816437), ipatasertib (NSC767898), afuresertib (NSC778305), talazoparib (NSC767125), sapanisertib (NSC764658), selumetinib (NSC741078), tovorafenib (DAY101, NSC766906), vemurafenib (NSC761431), ravoxertinib (NSC781343), sotorasib (NSC818433), MRTX1133 (NSC 836407), abemaciclib (NSC 768073), palbociclib (NSC758247), venetoclax (NSC 766270), SY5609 (NSC837396), enzalutamide (NSC755605), and darolutamide (NSC825331), were obtained from the National Cancer Institute (NCI) Developmental Therapeutics Program Chemical Repository. The FDA-approved anticancer drug set is available from the NCI Developmental Therapeutics Program. […] The stock solutions were prepared in dimethyl sulfoxide (DMSO, Sigma-Aldrich, St. Louis, MO, cat. D2650) at 800-fold the tested concentration and stored at -70 degrees C prior to their use. All drugs and investigational agents were tested over a range starting from a high concentration at or near the clinical Cmax and decreasing in half-log increments. If the clinical Cmax for an agent had not been determined, the highest concentration tested was 10 microM.
Cell Culture. All cells were maintained in an incubator at 37 degrees C and 5% CO2 with 95% humidity. The PDC lines were cultured according to standard operating procedures established by the NCI PDMR (https://pdmr.cancer.gov/sops/default.htm). All PDCs were thawed and cultured in Matrigel-coated flasks prepared with a working solution of 1X Ham's F-12 nutrient mix, without supplementation (Invitrogen, Waltham, MA, cat. 11765054), 100 U/mL penicillin-streptomycin (Invitrogen, cat. 15140122), and 2.5% Matrigel (Corning Inc., Corning, NY, cat. 354248) for the first three passages. The 354836-022-R-J1-PDC, 475296-252-R-J1-PDC, and 997726-040-R-J2-PDC lines were cultured in 6A media, which includes advanced DMEM/F-12 (Thermo Fisher Scientific, cat. 12634028), 10 mM HEPES (Thermo Fisher Scientific, cat. 15630080), 1X GlutaMAX supplement (Thermo Fisher Scientific, cat. 35050061), 0.1 mg/mL primocin (InvivoGen, San Diego, CA, cat. ant-pm-2), 10% defined fetal bovine serum, heat inactivated (HyClone Laboratories Inc., Logan, UT, cat. SH30070.03HI), 50% L-WRN conditioned media (ATCC, cat. CRL-3276), 1.25 mM N-Acetyl-L-cysteine (Sigma-Aldrich, cat. A9165), 10 mM nicotinamide (Sigma-Aldrich, cat. N0636), 1X B-27 supplement (Thermo Fisher Scientific, cat. 17504044), 1X N-2 supplement (Thermo Fisher Scientific, cat. 17502048), and 10 microM Y-27632 dihydrochloride (Tocris Bioscience, Bristol, United Kingdom, cat. 1254). The 624824-186-R-J2-PDC line was cultured in 6C/Colon 1B media, which includes all 6A media components plus 50 ng/mL human EGF recombinant protein (Thermo Fisher Scientific, cat. PHG0311). […]

[1] = curve of first compound, second compound 0.0316 µM
[2] = curve of first compound, second compound 0.1 µM
[3] = curve of first compound, second compound 0.316 µM
[4] = curve of first compound, second compound 1 µM
[5] = curve of first compound, second compound 3.16 µM
[6] = curve of first compound, second compound 10 µM
[7] = second compound 0.0316 µM, first compound 0.0316 µM
[8] = second compound 0.0316 µM, first compound 0.1 µM
[9] = second compound 0.0316 µM, first compound 0.316 µM
[10] = second compound 0.0316 µM, first compound 1 µM
[11] = second compound 0.0316 µM, first compound 3.16 µM
[12] = second compound 0.0316 µM, first compound 10 µM
[13] = second compound 0.1 µM, first compound 0.0316 µM
[14] = second compound 0.1 µM, first compound 0.1 µM
[15] = second compound 0.1 µM, first compound 0.316 µM
[16] = second compound 0.1 µM, first compound 1 µM
[17] = second compound 0.1 µM, first compound 3.16 µM
[18] = second compound 0.1 µM, first compound 10 µM
[19] = second compound 0.316 µM, first compound 0.0316 µM
[20] = second compound 0.316 µM, first compound 0.1 µM
[21] = second compound 0.316 µM, first compound 0.316 µM
[22] = second compound 0.316 µM, first compound 1 µM
[23] = second compound 0.316 µM, first compound 3.16 µM
[24] = second compound 0.316 µM, first compound 10 µM
[25] = second compound 1 µM, first compound 0.0316 µM
[26] = second compound 1 µM, first compound 0.1 µM
[27] = second compound 1 µM, first compound 0.316 µM
[28] = second compound 1 µM, first compound 1 µM
[29] = second compound 1 µM, first compound 3.16 µM
[30] = second compound 1 µM, first compound 10 µM
[31] = second compound 3.16 µM, first compound 0.0316 µM
[32] = second compound 3.16 µM, first compound 0.1 µM
[33] = second compound 3.16 µM, first compound 0.316 µM
[34] = second compound 3.16 µM, first compound 1 µM
[35] = second compound 3.16 µM, first compound 3.16 µM
[36] = second compound 3.16 µM, first compound 10 µM
[37] = second compound 10 µM, first compound 0.0316 µM
[38] = second compound 10 µM, first compound 0.1 µM
[39] = second compound 10 µM, first compound 0.316 µM
[40] = second compound 10 µM, first compound 1 µM
[41] = second compound 10 µM, first compound 3.16 µM
[42] = second compound 10 µM, first compound 10 µM

## COc1c(OCCCN2CCOCC2)ccc2c3n(c(=NC(=O)c4cnc(N)nc4)nc12)CCN3
Compound 0.00316 µM
  viability, T/C: 99.8% [middle of 8 runs]
Compound 0.01 µM
  viability, T/C: 90.4% [middle of 8 runs]
Compound 0.0316 µM
  viability, T/C: 76.7% [middle of 8 runs]
Compound 0.1 µM
  viability, T/C: 57.7% [middle of 8 runs]
Compound 0.316 µM
  viability, T/C: 23.9% [middle of 8 runs]
Compound 1 µM
  viability, T/C: 3.27% [middle of 8 runs]
Compound alone, run of 05/09/2023
  IC50: 122 nM [middle of 7 runs]

## C[C@@H](NC(=O)c1ncnc(N)c1Cl)c1ncc(C(=O)Nc2cc(C(F)(F)F)c(Cl)cn2)s1 + CC(Nc1ncnc2nc[nH]c12)c1cc2cccc(Cl)c2c(=O)n1-c1ccccc1
[1]
  IC50: > 10 µM
[2]
  IC50: > 10 µM
[3]
  IC50: > 10 µM
[4]
  IC50: > 10 µM
[5]
  IC50: > 10 µM
[6]
  IC50: < 0.0316 µM
[7]
  viability, T/C: 107%
[8]
  viability, T/C: 114%
[9]
  viability, T/C: 92.5%
[10]
  viability, T/C: 109%
[11]
  viability, T/C: 91.3%
[12]
  viability, T/C: 94.9%
[13]
  viability, T/C: 83%
[14]
  viability, T/C: 94.3%
[15]
  viability, T/C: 93.3%
[16]
  viability, T/C: 89%
[17]
  viability, T/C: 93.5%
[18]
  viability, T/C: 83.7%
[19]
  viability, T/C: 84.8%
[20]
  viability, T/C: 76.8%
[21]
  viability, T/C: 83.1%
[22]
  viability, T/C: 82%
[23]
  viability, T/C: 75.5%
[24]
  viability, T/C: 83.7%
[25]
  viability, T/C: 70%
[26]
  viability, T/C: 65.8%
[27]
  viability, T/C: 75.3%
[28]
  viability, T/C: 81.8%
[29]
  viability, T/C: 75.2%
[30]
  viability, T/C: 64.5%
[31]
  viability, T/C: 61.8%
[32]
  viability, T/C: 60.2%
[33]
  viability, T/C: 63.7%
[34]
  viability, T/C: 55.7%
[35]
  viability, T/C: 61.8%
[36]
  viability, T/C: 58.9%
[37]
  viability, T/C: 42.3%
[38]
  viability, T/C: 40.6%
[39]
  viability, T/C: 46.1%
[40]
  viability, T/C: 53%
[41]
  viability, T/C: 41.7%
[42]
  viability, T/C: 39.2%

## CNC(=O)c1ccc(N2C(=S)N(c3ccc(C#N)c(C(F)(F)F)c3)C(=O)C2(C)C)cc1F + Cc1nc(NC(=O)N2CCCC2C(N)=O)sc1-c1ccnc(C(C)(C)C(F)(F)F)c1
[1]
  IC50: > 10 µM
[2]
  IC50: > 10 µM
[3]
  IC50: > 10 µM
[4]
  IC50: > 10 µM
[5]
  IC50: 4.9 µM
[6]
  IC50: < 0.0316 µM
[7]
  viability, T/C: 96.8%
[8]
  viability, T/C: 97.2%
[9]
  viability, T/C: 83.9%
[10]
  viability, T/C: 114%
[11]
  viability, T/C: 97.4%
[12]
  viability, T/C: 62.5%
[13]
  viability, T/C: 92.4%
[14]
  viability, T/C: 101%
[15]
  viability, T/C: 96.2%
[16]
  viability, T/C: 106%
[17]
  viability, T/C: 82.8%
[18]
  viability, T/C: 52.2%
[19]
  viability, T/C: 99.8%
[20]
  viability, T/C: 78.2%
[21]
  viability, T/C: 73.3%
[22]
  viability, T/C: 103%
[23]
  viability, T/C: 74.6%
[24]
  viability, T/C: 59%
[25]
  viability, T/C: 97%
[26]
  viability, T/C: 76.9%
[27]
  viability, T/C: 67.4%
[28]
  viability, T/C: 90.5%
[29]
  viability, T/C: 59.2%
[30]
  viability, T/C: 58%
[31]
  viability, T/C: 79.8%
[32]
  viability, T/C: 64.5%
[33]
  viability, T/C: 65.3%
[34]
  viability, T/C: 74.8%
[35]
  viability, T/C: 49.4%
[36]
  viability, T/C: 42.5%
[37]
  viability, T/C: 39.8%
[38]
  viability, T/C: 28.3%
[39]
  viability, T/C: 35.4%
[40]
  viability, T/C: 29.4%
[41]
  viability, T/C: 25.2%
[42]
  viability, T/C: 25.6%

## CC(C)n1nc(-c2ccc3oc(N)nc3c2)c2c(N)ncnc21
Compound 0.000316 µM
  viability, T/C: 101% [middle of 4 runs]
Compound 0.00316 µM
  viability, T/C: 93% [middle of 4 runs]
Compound 0.01 µM
  viability, T/C: 81.4% [middle of 4 runs]
Compound 0.0316 µM
  viability, T/C: 64.6% [middle of 4 runs]
Compound 0.1 µM
  viability, T/C: 19.3% [middle of 4 runs]
Curve of compound
  IC50: 44.4 nM [middle of 4 runs]

## C#Cc1c(F)ccc2cc(O)cc(-c3ncc4c(N5CC6CCC(C5)N6)nc(OCC56CCCN5CC(F)C6)nc4c3F)c12 (centres undefined) + CC(Nc1ccc2c(c1)OCCn1cc(N3C(=O)OCC3C(F)F)nc1-2)C(N)=O
Curve of first compound, second compound 0.00316 µM
  IC50: > 10 µM
Curve of first compound, second compound 0.01 µM
  IC50: > 10 µM
[1]
  IC50: 8.92 µM
[2]
  IC50: 8 µM
[3]
  IC50: 5.19 µM
[4]
  IC50: 4.48 µM
Second compound 0.00316 µM, first compound 0.0316 µM
  viability, T/C: 94.9%
Second compound 0.00316 µM, first compound 0.1 µM
  viability, T/C: 91%
Second compound 0.00316 µM, first compound 0.316 µM
  viability, T/C: 86%
Second compound 0.00316 µM, first compound 1 µM
  viability, T/C: 91.5%
Second compound 0.00316 µM, first compound 3.16 µM
  viability, T/C: 88.2%
Second compound 0.00316 µM, first compound 10 µM
  viability, T/C: 53.4%
Second compound 0.01 µM, first compound 0.0316 µM
  viability, T/C: 95.7%
Second compound 0.01 µM, first compound 0.1 µM
  viability, T/C: 103%
Second compound 0.01 µM, first compound 0.316 µM
  viability, T/C: 83.3%
Second compound 0.01 µM, first compound 1 µM
  viability, T/C: 82%
Second compound 0.01 µM, first compound 3.16 µM
  viability, T/C: 89.2%
Second compound 0.01 µM, first compound 10 µM
  viability, T/C: 55.1%
[7]
  viability, T/C: 91.4%
[8]
  viability, T/C: 84.9%
[9]
  viability, T/C: 88.3%
[10]
  viability, T/C: 81.2%
[11]
  viability, T/C: 81.9%
[12]
  viability, T/C: 46.5%
[13]
  viability, T/C: 84%
[14]
  viability, T/C: 76.7%
[15]
  viability, T/C: 72.1%
[16]
  viability, T/C: 75.5%
[17]
  viability, T/C: 73.9%
[18]
  viability, T/C: 44.4%
[19]
  viability, T/C: 93.1%
[20]
  viability, T/C: 72%
[21]
  viability, T/C: 81.1%
[22]
  viability, T/C: 64.5%
[23]
  viability, T/C: 65.7%
[24]
  viability, T/C: 36.4%
[25]
  viability, T/C: 89.1%
[26]
  viability, T/C: 75.4%
[27]
  viability, T/C: 82.1%
[28]
  viability, T/C: 70.3%
[29]
  viability, T/C: 59.2%
[30]
  viability, T/C: 31.3%
